Results as given in paper PMC6582486, “Stapled EGFR peptide reduces inflammatory breast cancer and inhibits additional HER-driven models of cancer” (Journal of Translational Medicine, 2019).
Like-named read-outs stand apart in the source and are kept apart here. Where a SMILES comes first, the peptide text is derived from it. Bridges are numbered along the chain shown (N, C = ends). [ ]: non-standard residue; d: D form. R8 = C=CCCCCCC[C@@](C)(N)C(=O)O; S5 = C=CCCC[C@](C)(N)C(=O)O

Tests used:
[1] = 28-day toxicity study: treatment observation frequency; format: in vivo, CD-1 mice; conditions: for Treatment observation: Animals with Signs: 28 days
Experimental: (§1) Toxicology was performed by IITRI. The study was conducted in compliance with the US Food and Drug Administration (FDA) good laboratory practice (GLP) Regulations (Code of Federal Regulations Title 21 Part 58) to evaluate the toxicokinetics, local tolerability, immunogenicity, and potential toxicity of SAH5-EJ1 following three times per week intravenous (IV) dosing for 28 days in mice. Male and female CD-1 IGS [Crl:CD1(ICR)] mice (135 per sex) were received from Wilmington, MA-based Charles River Laboratories, Inc.’s Kingston facility (Stone Ridge, NY).

[2] = Plasma concentration after tail-vein injection (toxicokinetics); format: in vivo, CD-1 mice; conditions: for level at 0.5 h: day 1, 0.5 h; for level at 0.5 h / level at 1 h: average ± SD, read-out: SAH-EJ1 concentration in plasma, average;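 on SAH-EJ1 concentration in plasma, average: blood sampled on day 1 after the tail-vein injection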
Experimental: as §1

SMILES: CC[C@H](C)[C@H](NC(=O)[C@H](Cc1c[nH]cn1)NC(=O)[C@H](CCCNC(=N)N)NC(=O)[C@H](CCCNC(=N)N)NC(=O)[C@H](CCCNC(=N)N)NC(=O)[C@H](CCSC)NC(=O)[C@H](Cc1ccccc1)NC(=O)[C@H](C)NC(=O)[C@H](CCCNC(=N)N)NC(=O)[C@H](C)NC(=O)[C@H](CCC(N)=O)NC(=O)[C@H](CCCNC(=N)N)NC(=O)[C@H](C)NC(=O)[C@H](C)NC(=O)[C@H](C)NC(=O)[C@H](CCCNC(=N)N)NC(=O)[C@H](C)NC(=O)[C@@H](N)Cc1ccc(O)cc1)C(=O)N[C@H](C(=O)N[C@@H](CCCNC(=N)N)C(=O)N[C@@H](CCCCN)C(=O)N[C@@H](CCCNC(=N)N)C(=O)N[C@]1(C)CCCCCCC=CCCC[C@@](C)(C(=O)N[C@@H](CCCNC(=N)N)C(=O)N[C@@H](CCC(=O)O)C(N)=O)NC(=O)[C@H](CCC(N)=O)NC(=O)[C@H](CC(C)C)NC(=O)[C@H](CC(C)C)NC(=O)[C@H](CCCNC(=N)N)NC(=O)[C@H](CCCNC(=N)N)NC(=O)[C@H](CC(C)C)NC1=O)C(C)C [SAH5-EJ1] (H-YARAAARQARAFMRRRHIVRKR[R8]LRRLLQ[S5]RE-NH2; staple 23-30)
- Treatment observation: Discolored Urine (animals) ([1]; female, 5 mg/kg, 10 examined): 0
- Treatment observation: General (animals) ([1]; female, 5 mg/kg, 10 examined): 0
- Treatment observation: Hunched Posture (animals) ([1]; female, 5 mg/kg, 10 examined): 0
- Treatment observation: Hypoactive (animals) ([1]; female, 5 mg/kg, 10 examined): 0
- Treatment observation: Normal (animals) ([1]; female, 5 mg/kg, 10 examined): 10
- Treatment observation: Animals with Signs ([1]; female, 5 mg/kg, 10 examined): 0
- Treatment observation: Discolored Urine (animals) ([1]; female, 10 mg/kg, 10 examined): 0
- Treatment observation: General (animals) ([1]; female, 10 mg/kg, 10 examined): 0
- Treatment observation: Hunched Posture (animals) ([1]; female, 10 mg/kg, 10 examined): 0
- Treatment observation: Hypoactive (animals) ([1]; female, 10 mg/kg, 10 examined): 0
- Treatment observation: Normal (animals) ([1]; female, 10 mg/kg, 10 examined): 10
- Treatment observation: Animals with Signs ([1]; female, 10 mg/kg, 10 examined): 0
- Treatment observation: Discolored Urine (animals) ([1]; female, 15 mg/kg, 15 examined): 1
- Treatment observation: General (animals) ([1]; female, 15 mg/kg, 15 examined): 2
- Treatment observation: Hunched Posture (animals) ([1]; female, 15 mg/kg, 15 examined): 1
- Treatment observation: Hypoactive (animals) ([1]; female, 15 mg/kg, 15 examined): 2
- Treatment observation: Normal (animals) ([1]; female, 15 mg/kg, 15 examined): 15
- Treatment observation: Animals with Signs ([1]; female, 15 mg/kg, 15 examined): 2
- Treatment observation: Discolored Urine (animals) ([1]; male, 5 mg/kg, 10 examined): 0
- Treatment observation: General (animals) ([1]; male, 5 mg/kg, 10 examined): 0
- Treatment observation: Normal (animals) ([1]; male, 5 mg/kg, 10 examined): 10
- Treatment observation: Rough Coat (animals) ([1]; male, 5 mg/kg, 10 examined): 0
- Treatment observation: Animals with Signs ([1]; male, 5 mg/kg, 10 examined): 0
- Treatment observation: Discolored Urine (animals) ([1]; male, 10 mg/kg, 10 examined): 0
- Treatment observation: General (animals) ([1]; male, 10 mg/kg, 10 examined): 0
- Treatment observation: Normal (animals) ([1]; male, 10 mg/kg, 10 examined): 10
- Treatment observation: Rough Coat (animals) ([1]; male, 10 mg/kg, 10 examined): 0
- Treatment observation: Animals with Signs ([1]; male, 10 mg/kg, 10 examined): 0
- Treatment observation: Discolored Urine (animals) ([1]; male, 15 mg/kg, 15 examined): 1
- Treatment observation: General (animals) ([1]; male, 15 mg/kg, 15 examined): 2
- Treatment observation: Normal (animals) ([1]; male, 15 mg/kg, 15 examined): 15
- Treatment observation: Rough Coat (animals) ([1]; male, 15 mg/kg, 15 examined): 2
- Treatment observation: Animals with Signs ([1]; male, 15 mg/kg, 15 examined): 2
- level at 0.5 h ([2]; CD-1, mouse, plasma, female, 10 mg/kg IV): 562 ± 47 ng/mL
- level at 1 h ([2]; CD-1, mouse, plasma, female, 10 mg/kg IV, day 1, 1 h): 542 ± 33 ng/mL
- level at 0.5 h ([2]; CD-1, mouse, plasma, female, 15 mg/kg IV): 554 ± 64 ng/mL
- level at 1 h ([2]; CD-1, mouse, plasma, female, 15 mg/kg IV, day 1, 1 h): 569 ± 27 ng/mL
- level at 0.5 h ([2]; CD-1, mouse, plasma, male, 10 mg/kg IV): 638 ± 110 ng/mL
- level at 1 h ([2]; CD-1, mouse, plasma, male, 10 mg/kg IV, day 1, 1 h): 665 ± 150 ng/mL
- level at 0.5 h ([2]; CD-1 IGS [Crl:CD1(ICR)], mouse, plasma, female, 5 mg/kg IV): 569 ± 19 ng/mL
- level at 1 h ([2]; CD-1 IGS [Crl:CD1(ICR)], mouse, plasma, female, 5 mg/kg IV, day 1, 1 h): 529 ± 30 ng/mL
- level at 0.5 h ([2]; CD-1 IGS [Crl:CD1(ICR)], mouse, plasma, male, 5 mg/kg IV): 1020 ± 350 ng/mL
- level at 1 h ([2]; CD-1 IGS [Crl:CD1(ICR)], mouse, plasma, male, 5 mg/kg IV, day 1, 1 h): 576 ± 39 ng/mL
- level at 0.5 h ([2]; CD-1 IGS [Crl:CD1(ICR)], mouse, plasma, male, 15 mg/kg IV): 901 ± 160 ng/mL
- level at 1 h ([2]; CD-1 IGS [Crl:CD1(ICR)], mouse, plasma, male, 15 mg/kg IV, day 1, 1 h): 657 ± 37 ng/mL
- level at 2 h ([2]; CD-1 IGS [Crl:CD1(ICR)], plasma, male, 15 mg/kg IV, day 1, 2 h, mouse 2 of 3, read-out: SAH-EJ1 concentration in plasma): 551 ng/mL
- time by which peptide was not detectable in plasma ([2]; female mice, highest body weight dosage): ≤ 2 h
- SAH-EJ1 concentration in plasma ([2]; female, 5 mg/kg IV, day 1, 1 h, mouse 1 of 3): BQL (BQL represents below quantifiable limits (0.5 µg/mL))
- SAH-EJ1 concentration in plasma ([2]; female, 5 mg/kg IV, day 1, 2 h, mouse 1 of 3): BQL (BQL represents below quantifiable limits (0.5 µg/mL))
- SAH-EJ1 concentration in plasma ([2]; female, 5 mg/kg IV, day 1, 2 h, mouse 2 of 3): BQL (BQL represents below quantifiable limits (0.5 µg/mL))
- SAH-EJ1 concentration in plasma ([2]; female, 5 mg/kg IV, day 1, 2 h, mouse 3 of 3): BQL (BQL represents below quantifiable limits (0.5 µg/mL))
- SAH-EJ1 concentration in plasma ([2]; female, 5 mg/kg IV, day 1, 4 h, mouse 1 of 3): BQL (BQL represents below quantifiable limits (0.5 µg/mL))
- SAH-EJ1 concentration in plasma ([2]; female, 5 mg/kg IV, day 1, 4 h, mouse 2 of 3): BQL (BQL represents below quantifiable limits (0.5 µg/mL))
- SAH-EJ1 concentration in plasma ([2]; female, 5 mg/kg IV, day 1, 4 h, mouse 3 of 3): BQL (BQL represents below quantifiable limits (0.5 µg/mL))
- SAH-EJ1 concentration in plasma ([2]; female, 5 mg/kg IV, day 1, 8 h, mouse 1 of 3): BQL (BQL represents below quantifiable limits (0.5 µg/mL))
- SAH-EJ1 concentration in plasma ([2]; female, 5 mg/kg IV, day 1, 8 h, mouse 2 of 3): BQL (BQL represents below quantifiable limits (0.5 µg/mL))
- SAH-EJ1 concentration in plasma ([2]; female, 5 mg/kg IV, day 1, 8 h, mouse 3 of 3): BQL (BQL represents below quantifiable limits (0.5 µg/mL))
- SAH-EJ1 concentration in plasma ([2]; female, 5 mg/kg IV, day 1, 24 h, mouse 1 of 3): BQL (BQL represents below quantifiable limits (0.5 µg/mL))
- SAH-EJ1 concentration in plasma ([2]; female, 5 mg/kg IV, day 1, 24 h, mouse 2 of 3): BQL (BQL represents below quantifiable limits (0.5 µg/mL))
- SAH-EJ1 concentration in plasma ([2]; female, 5 mg/kg IV, day 1, 24 h, mouse 3 of 3): BQL (BQL represents below quantifiable limits (0.5 µg/mL))
- SAH-EJ1 concentration in plasma ([2]; female, 10 mg/kg IV, day 1, 1 h, mouse 2 of 3): BQL (BQL represents below quantifiable limits (0.5 µg/mL))
- SAH-EJ1 concentration in plasma ([2]; female, 10 mg/kg IV, day 1, 2 h, mouse 1 of 3): BQL (BQL represents below quantifiable limits (0.5 µg/mL))
